Entries after “also recorded” stand apart in the source; their conditions may differ.
Columns and labels:
MeCP2^308/Y mice = test: DID paradigm in low drinking MeCP2^308/Y mice, alcohol intake and BALs; type: in vivo, mouse; conditions: PF-543 10 mg/kg i.p., 30 min before the drinking session
C57BL/6J mice [1] = test: drinking in the dark (DID) binge drinking paradigm, alcohol intake; type: in vivo, mouse; conditions: for alcohol consumption in the DID paradigm over a 4 h drinking session: first 2 h and 4 h
Protocol: The S1P agonists fingolimod (1, 2, and 4 mg/kg), ozanimod (0.25, 0.5, and 1 mg/kg) and CYM-5442 (1.25, 2.5, and 5 mg/kg) (Tocris, Minneapolis, MN, USA) were suspended in saline with 1% (w/v) Tween 80 and administered intraperitoneally (i.p.) (injection volume in mice 10 ml/kg, in rats 2 ml/kg). Pretreatment time was 30 min for fingolimod and ozanimod, while CYM-5442 was injected 60 min before each behavioral experiment.
Acute effect of the S1P agonists was tested in alcohol binge-like drinking in male and female C57BL/6J mice exposed to the drinking in the dark paradigm. As described by Rhodes and colleagues (Rhodes et al. Physiol Behav 84:53-63, 2005; Thiele et al. Alcohol 48:235-41, 2014) 3 h after lights go off, the water bottle of single-housed mice was replaced with a bottle containing 20% (v/v) alcohol and left in place for 2 h, over three consecutive days during which mice stabilized alcohol drinking. […] Over the experiment, the amount of alcohol consumed by mice was measured by weighing (0.01 g accuracy) the bottle immediately before and after each drinking session. Alcohol consumption was expressed as grams of pure alcohol per kilogram of body weight (g/kg). In addition, at the end of the second 2 h drinking session, blood samples were collected from the tip of the tail of each mouse and BALs were measured.

[2] = rotarod test, motor impairment by S1P receptor agonists (fingolimod); conditions: in vivo
body weight (fingolimod) = conditions: in vivo
[3] = tested on: mice with degenerative and inflammatory conditions; conditions: cited from earlier work
[4] = in words only; cited from earlier work
C57BL/6J mice [5] = test: loss of righting reflex (LORR), sensitivity to alcohol's hypnotic action; type: in vivo, mouse
C57BL/6J mice [6] = test: saccharin consumption in the DID paradigm; type: in vivo, mouse; conditions: CYM-5442 5 mg/kg i.p., male C57BL/6J mice, first 2 h and 4 h
Excerpt: An identical experimental plan was adopted to evaluate acute effects of CYM-5442 on the no-drugs reinforcer saccharin (0.002% w/v). Independent groups of C57BL/6J mice were used for testing the effect of CYM-5442 on saccharin intake.

C57BL/6J mice [7] = test: rotarod test, motor coordination, mice; type: in vivo, mouse; conditions: CYM-5442; male C57BL/6J mice
Protocol: (§1) Effect of CYM-5442 on motor coordination was evaluated in male and female C57NBL/6J mice and male Wistar rats in the rotarod apparatus (Rotamex-5, Columbus Instruments, USA). Briefly, one week before testing, animals were extensively habituated to handling and intraperitoneal injections. On test day, animals were weighed and allocated into the four experimental groups. CYM-5442 or vehicle were injected intraperitoneally 60 min before the start of the first trial. Each subject underwent 3 trials of 300 s (intertrial interval 60 s) with a rotarod acceleration from 4 to 40 rpm. Trials in which animals fell before 5 s, calculated from the beginning of the trial, were repeated. For each animal, the latency to fall was assessed and expressed as the average values over the 3 trials.

Wistar rats [8] = test: intravenous methamphetamine self-administration (FR1 and progressive ratio); type: in vivo, rat; conditions: CYM-5442 5 mg/kg i.p., male Wistar rats, vs vehicle
Protocol: The effect of CYM-5442 was tested on methamphetamine self-administering rats. Male Wistar rats were aseptically implanted with chronic silastic catheters in the right jugular vein and were trained to self-administer methamphetamine (1 h/day at a dose of 0.05 mg/kg/infusion). Rats were trained to self-administer methamphetamine under a fixed-ratio 1 schedule of reinforcement (FR1) whereby one lever press results in the delivery of one methamphetamine infusion (0.05 mg/kg) under 1-h daily sessions.
Male Wistar rats were aseptically implanted with intravenous catheters in the right jugular vein under deep isoflurane anesthesia as previously described in Ahmed et al. (Proc Natl Acad Sci USA 102:11533-8). At the time of testing, the rats' body weights ranged between 350 and 400 g.
Self-administration was performed in operant conditioning chambers (Med Associates, St. Albans, VT, USA) that were enclosed in lit, sound-attenuating, ventilated environmental cubicles. Methamphetamine was delivered through plastic catheter tubing that was connected to an infusion pump. The infusion pump was activated by responses on the right (active) lever. […] A computer controlled fluid delivery and behavioral data recording. All of the rats were tested for methamphetamine self-administration on a continuous reinforcement (fixed ratio 1, FR1) schedule. […] A 20-s timeout (TO) period followed each METH infusion. […]

Wistar rats [9] = test: rotarod test, motor coordination, rats; type: in vivo, rat; conditions: CYM-5442 5 mg/kg; male Wistar rats
Protocol: as §1

C57BL/6J mice [10] = test: acute food intake in 4 h sessions (CLAMS); type: in vivo, mouse; conditions: vs 0 mg/kg
Protocol: The acute effect of CYM-5442 on food intake was measured in 4 h sessions. CYM-5442 was administered 1 h before the sessions. CYM-5442 reduced food intake in a dose-dependent manner at the doses of 2.5 and 5 mg/Kg in the first 2 h (FIG. 7A) and at the dose of 5 mg/kg after 4 h (FIG. 7B).
(§2) Effect of CYM-5442 was evaluated on food (g) and water intake (ml) and respiratory exchange ratio (RER: VCO2/VO2) of male C57BL/6J mice (n=30) allocated into CLAMS (Comprehensive Lab Animal Monitoring System, Columbus Instruments, Columbus, OH USA) chambers. After 1-week acclimatization, on test day, mice were removed from the metabolic chambers, injected with CYM-5442 60 min before 3 h into the dark of the light/dark cycle and then placed back into the chambers. Food, water intake and RER were monitored starting the 1st to the 12th h of the dark phase of the light/dark cycle.

C57BL/6J mice [11] = test: respiratory exchange ratio (RER) by indirect calorimetry (CLAMS); type: in vivo, mouse
Protocol: The effect of CYM-5442 on energy metabolism was tested by indirect calorimetry with the Comprehensive Lab Animal Monitoring System (CLAMS; Columbus Instruments, Columbus, OH USA). After 1-week acclimatization, on test day, mice were removed from metabolic chambers, injected with CYM-5442 3 h into the dark phase of the light/dark cycle and then placed back into chambers. […] The RER indicates the energy source the organism uses over the day. It is typically measured on a scale from 0.7 to 1.
as §2

C57BL/6J mice [12] = test: chronic treatment of LFD- or HFD-fed mice: body weight, food and water intake; type: in vivo, mouse
Protocol: (§3) The effect of chronic daily administration of CYM-5442 on body weight and body fat content was tested in mice fed either a low-fat diet (LFD; D12450K, 10 kcal % Fat, Research Diets, Inc. NJ, US) or a high-fat diet (HFD; D07011903, 45 kcal % Fat) ad libitum. Mice were treated with CYM-5442 (2.5 mg/kg, i.p.) or vehicle 5 days a week over 7 consecutive weeks. […] This is consistent with the moderate half-life of the drug that allows adlibitum fed mice to eat through the day. This finding supports that the metabolic effect of CYM-5442 of increased fat utilization or lipolysis is independent of reduction of food intake.

C57BL/6J mice [13] = test: body composition by quantitative nuclear magnetic resonance (qNMR) after chronic treatment; type: in vivo, mouse; conditions: chronic CYM-5442 2.5 mg/kg i.p.
Protocol: as §3
Body composition was determined with a quantitative nuclear magnetic resonance instrument (qNMR, Echo MRI, Houston, TX).

[14] = CYM-5442 2.5 mg/kg i.p. chronic, HFD-fed or LFD-fed mice, vs vehicle

## Cc1cc(CS(=O)(=O)c2ccccc2)cc(OCc2ccc(CN3CCC[C@@H]3CO)cc2)c1 [PF-543]
MeCP2^308/Y mice
  alcohol consumption of MeCP2^308/Y mice in the DID paradigm: increased

## CCCCCCCCc1ccc(CCC(N)(CO)CO)cc1 [fingolimod]
C57BL/6J mice [1]; fingolimod 4 mg/kg i.p., C57BL/6J mice
  alcohol consumption in the DID paradigm over a 4 h drinking session: reduced
[2]
  motor impairment, performance in the rotarod test: did not impair
Body weight (fingolimod)
  body weight: did not affect
[3]
  motor deficits: ameliorated
[4]
  half-life (circulating): longer

## CCOc1ccc(-c2nc(-c3cccc4c3CCC4NCCO)no2)cc1OCC (centres unmarked) [CYM-5442]
C57BL/6J mice [1]; CYM-5442 2.5, 5 mg/kg i.p., male C57BL/6J mice
  alcohol consumption in the DID paradigm over a 4 h drinking session: reduces
C57BL/6J mice [5]; CYM-5442 2.5 mg/kg i.p., alcohol 3.5 g/kg, male C57BL/6J mice
  duration of loss of righting reflex (LORR): significantly increases
C57BL/6J mice [6]
  saccharin [0.002% (w/v)] consumption in the DID paradigm over a 4 h drinking session: reduces
C57BL/6J mice [7]
  motor coordination performance in the rotarod apparatus (latency to fall, active run time): did not affect; also recorded: does not alter
Wistar rats [8]; acute
  lever-responding for methamphetamine, fixed-ratio 1 (FR1), 1-h self-administration session: significantly reduced
Wistar rats [8]
  methamphetamine self-administration under progressive ratio (PR) schedule, break point: significantly reduced; also recorded: lower
Wistar rats [9]
  motor coordination in the rotarod apparatus: did not affect
C57BL/6J mice [10]; CYM-5442 2.5 mg/kg and 5 mg/kg
  food-intake during the 1st 2-hrs: significantly reduced
C57BL/6J mice [10]; CYM-5442 5 mg/kg
  food-intake over the entire 4-hrs session: reduced
C57BL/6J mice [11]; CYM-5442 i.p. 1.25, 2.5, 5 mg/kg, for 1-3 hours, dose-dependent
  Respiratory Exchange Ratio (RER), time course: significantly lower; also recorded: significantly reduced
C57BL/6J mice [11]; CYM-5442 i.p., 0 mg/kg vs 5 mg/kg
  RER, average of 2 hours, first 2 hrs measure point (1-3 hrs after injection): significantly reduced
C57BL/6J mice [12]; [14]
  overall daily (24 h) food intake: did not differ
  overall daily (24 h) water intake: did not differ
C57BL/6J mice [12]; CYM-5442 2.5 mg/kg i.p. daily, 5 days a week over 7 weeks, vs vehicle-treated HFD-fed mice
  body weight gain in HFD-fed mice: effectively prevented
C57BL/6J mice [13]
  body fat in the low-fat diet (LFD)-fed control group (reduction): not
  lean body mass: without affecting
C57BL/6J mice [13]; vs vehicle in HFD, 2.5 mg/kg
  body fat in the HFD-fed group: significantly reduced
[4]
  half-life (circulating): longer; also recorded: moderate

## CC(C)Oc1ccc(-c2nc(-c3cccc4c3CC[C@@H]4NCCO)no2)cc1C#N [ozanimod, Ozanimod (RPC1063)]
C57BL/6J mice [1]; ozanimod 0.25-1 mg/kg i.p., C57BL/6J mice, 4 h, p>0.05
  alcohol consumption at the end of the 4-h drinking session (reducing effect): not evident
C57BL/6J mice [1]; ozanimod 0.25-1 mg/kg i.p., C57BL/6J mice, first 2 h, p<0.05
  alcohol consumption in the DID paradigm after 2 h: reduced
C57BL/6J mice [5]; ozanimod 0.1 and 0.3 mg/kg i.p., C57BL/6J mice
  duration of loss of righting reflex (LORR): significantly increased
[3]
  motor deficits: ameliorated
[4]
  half-life (circulating): short

Reference: patent US20250144081A1, “METHODS FOR REDUCING ALCOHOL, DRUG, AND FOOD INTAKE” (The Scripps Research Institute, priority 2022, published 2025)
